Reference: US9102636B2, “Analgesic compounds, compositions, and uses thereof” (Galleon Pharmaceuticals, Inc., priority 2010, dated 2015)
“And” between values parts separate entries of the source, which are not always exact repeats. Identical values can stand only once. “Also recorded” adds a separate entry of the source.

Key:
Format in all cases: in vivo, rat
[1] = test system: Carrageenan-induced thermal hyperalgesia; experiment: Carrageenan-induced thermal hyperalgesia (Hargreaves); settings: for Paw withdrawal latency: cut-off 40 s, individual animals
[2] = test system: FCA induced thermal hyperalgesia; experiment: FCA induced thermal hyperalgesia (Hargreaves); settings: for Paw withdrawal latency: individual rats, FIG. 18A
Protocol: (§1) Compound 2 was evaluated in the rat Freund's complete adjuvant (FCA) model of inflammatory pain. The rat Freund's complete adjuvant (FCA) intraplantar model of inflammatory pain produces behaviors similar to those observed in patients and has been widely used to assess novel pharmacological treatments (Lam et al., 2008, J Ethnopharmacol. 120:44-50). The positive control was celecoxib (TRC, Montreal), and the negative control was vehicle (0.5% methyl cellulose, in phosphate buffered saline). […] The Hargreaves apparatus was obtained from Ugo Basile, Italy. The Freund's complete adjuvant was obtained from Sigma, St. Louis, and the electronic von frey was obtained from Stoelting, Ill. For this assay, paw withdrawal latency to a thermal stimulus was assessed using a radiant heat source (Ugo Basile, Italy) aimed at the plantar surface of the left hind paw (Hargreaves test; […] Paw withdrawal thresholds to a non-noxious tactile stimulus was assessed using an electronic von Frey apparatus that presented an increasing mechanical force to the plantar surface of the hind paw. Paw volume was measured by displacement of water and assuming a tissue density equal to that of water. […] Celecoxib (30 mg/kg p.o.) served as the positive control. […] After induction of anesthesia, the injection site was prepared in a sterile manner and 100 μl of a 50% suspension of FCA injected. After injection, animals were weighed and allowed to recover before being returned to their home cages. Statistical significance was determined on untransformed data using a two-way analysis of variance (Graphpad Prism, NC). Significant main effects were analyzed further by subsequent Bonferronni post-hoc test. The level of significance was set at p<0.05. Data are shown as mean±S.E.M. (with an asterisk to denote significance as compared to vehicle treated controls).

[3] = test system: FCA induced tactile allodynia; experiment: FCA induced tactile allodynia (electronic von Frey)
Protocol: as §1

Question: What does the source list for `CC1(C)SC(Nc2ccccc2O)=N[C@@H]1C(=O)O` [Compound 2, (R)-2-(2-hydroxyphenylamino)-thiazoline-5,5-dimethyl-4-carboxylic acid]?
Answer: Paw withdrawal latency ([1]; compound 2 10 mg/kg p.o. preemptive (15 minutes prior to carrageenan), baseline prior to carrageenan (first line), 10 mg/kg): 20.94 s and 40 s and 25.09 s and 26.96 s and 13.66 s and 23.25 s; Paw withdrawal latency ([1]; compound 2 10 mg/kg p.o. preemptive, 4 hours post carrageenan (second line), 10 mg/kg): 8.1 s and 5.07 s and 20.71 s and 12.18 s and 11.94 s and 9.38 s; Paw withdrawal latency ([1]; compound 2 30 mg/kg p.o. preemptive, 4 hours post carrageenan (second line), 30 mg/kg): 11.57 s and 16.63 s and 6.81 s and 11 s and 32.38 s and 11.6 s; Paw withdrawal latency ([1]; compound 2 30 mg/kg p.o. preemptive, baseline prior to carrageenan (first line), 30 mg/kg): 27.75 s and 15.78 s and 35.57 s and 23.26 s and 18.37 s and 25.78 s; carrageenan-induced thermal hyperalgesia, preemptive (finding in words) ([1]; rat, 10 and 30 mg/kg p.o. 15 minutes prior to carrageenan): did not significantly prevent; Paw withdrawal latency ([2]; baseline (prior to FCA)): 16.6 s and 17.55 s and 20.74 s and 20.9 s and 20.6 s and 19.33 s; Paw withdrawal latency ([2]; day 1, compound 2 25 mg/kg i.v. preemptive, 25 mg/kg): 14.4 s and 156.3 s and 15.1 s (2×) and 15.7 s and 22.7 s; Paw withdrawal latency ([2]; day 3, compound 2 25 mg/kg i.v. preemptive, 25 mg/kg): 12.5 s and 19.12 s and 19.5 s (2×) and 15.7 s and 17.7 s; Paw withdrawal latency ([2]; day 4, compound 2 25 mg/kg i.v. preemptive, 25 mg/kg): 14 s and 16.25 s and 16.51 s (2×) and 16.6 s and 18.2 s; FCA thermal hyperalgesia (finding in words) ([2]; rat, single dose 25 mg/kg i.v. preemptive, significant 72 hours post-FCA, 25 mg/kg): prevented the development; also recorded: significantly prevented; Paw withdrawl threshold ([3]; 30 (min post-dose), 30 mg/kg p.o. 24 hours post-FCA, 30 mg/kg): 19.3 g and 32.6 g and 27.3 g and 30.2 g and 26.3 g and 19.5 g; Paw withdrawl threshold ([3]; 30 (min post-dose), 100 mg/kg p.o. 24 hours post-FCA, 100 mg/kg): 28.6 g and 27.9 g and 19.3 g and 34.6 g and 31.6 g and 21 g; Paw withdrawl threshold ([3]; 60 (min post-dose), 3 mg/kg p.o. 24 hours post-FCA, 3 mg/kg): 22 g and 16.5 g and 21.4 g and 15.7 g and 22.3 g and 18 g; Paw withdrawl threshold ([3]; 60 (min post-dose), 30 mg/kg p.o. 24 hours post-FCA, 30 mg/kg): 24 g and 24.2 g and 26.5 g and 21.6 g and 27.4 g and 31.1 g; Paw withdrawl threshold ([3]; 60 (min post-dose), 100 mg/kg p.o. 24 hours post-FCA, 100 mg/kg): 31.2 g and 27.5 g and 35.3 g and 29.1 g and 30.3 g and 34.6 g; Paw withdrawl threshold ([3]; BL(D1), 24 hours post-FCA before dosing, 3 mg/kg group, 3 mg/kg): 20.5 g and 15.3 g and 18.5 g and 16.5 g and 17.3 g and 15.8 g; Paw withdrawl threshold ([3]; BL(D1), 24 hours post-FCA before dosing, 30 mg/kg group, 30 mg/kg): 15 g and 19.2 g and 18.2 g and 22.5 g and 17.8 g and 16.5 g; Paw withdrawl threshold ([3]; BL(D1), 24 hours post-FCA before dosing, 100 mg/kg group, 100 mg/kg): 12.8 g and 13.9 g and 16 g and 19.3 g and 23.51 g and 12.6 g; Paw withdrawl threshold ([3]; baseline (pre-FCA), 3 mg/kg group, individual rats, 3 mg/kg): 36.1 g and 32.4 g and 35.8 g and 33.4 g and 34.4 g and 30.9 g; Paw withdrawl threshold ([3]; baseline (pre-FCA), 10 mg/kg group, individual rats, 10 mg/kg): 28.6 g and 26.67 g and 37.9 g and 31.3 g and 39 g and 31.8 g; Paw withdrawl threshold ([3]; baseline (pre-FCA), 30 mg/kg group, individual rats, 30 mg/kg): 33.2 g and 34.9 g (2×) and 36.6 g and 35.6 g and 33.4 g; Paw withdrawl threshold ([3]; baseline (pre-FCA), 100 mg/kg group, individual rats, 100 mg/kg): 31.8 g and 26.6 g and 27.6 g and 33.33 g and 37.8 g and 31.9 g; Paw withdrawal latency (s), FIG. 18B ([3]; baseline (prior to FCA), individual rats): 29.6 s (2×) and 32.5 s and 29.8 s and 27.5 s and 31.4 s; Paw withdrawal latency (s), FIG. 18B ([3]; day 1, compound 2 25 mg/kg i.v. preemptive, individual rats, 25 mg/kg): 36.7 s and 26.7 s and 38.9 s and 25 s and 27 s and 29 s; Paw withdrawal latency (s), FIG. 18B ([3]; day 3, compound 2 25 mg/kg i.v. preemptive, individual rats, 25 mg/kg): 29.8 s and 28 s and 30 s and 27.7 s and 23.5 s and 33.8 s; Paw withdrawal latency (s), FIG. 18B ([3]; day 4, compound 2 25 mg/kg i.v. preemptive, individual rats, 25 mg/kg): 25 s and 27.23 s and 36.5 s and 31.3 s and 31.9 s and 24.3 s; reversal of FCA-induced tactile allodynia (finding in words) ([3]; rat, 3, 10, 30 and 100 mg/kg p.o. curative, 24 hours post-FCA, significant at 10, 30 and 100 mg/kg, 30 and 60 minutes): significant reversal of FCA induced tactile allodynia; also recorded: able to reverse established inflammatory tactile allodynia; also recorded: significantly reversed; FCA-induced tactile allodynia (finding in words) ([3]; rat, p.o. single dose 25 mg/kg preemptive): significantly prevented; FCA tactile allodynia (finding in words) ([3]; rat, single dose 25 mg/kg i.v. preemptive, significant 24, 48 and 72 hours post-FCA, 25 mg/kg): prevented the development; also recorded: significantly prevented
